The text below walks through data of patent EP2257297B1, “COMPOUNDS FOR USE IN THE TREATMENT OF ACNE, SEBORRHOEA AND SEBHORROEIC DERMATITIS, OR FOR REDUCING SEBUM SECRETION” (priority 2008, dated 2009).

Broadly, the IC50 is the point on the concentration scale where inhibition reaches its midpoint.

T1 sequence (P33032 whole entry): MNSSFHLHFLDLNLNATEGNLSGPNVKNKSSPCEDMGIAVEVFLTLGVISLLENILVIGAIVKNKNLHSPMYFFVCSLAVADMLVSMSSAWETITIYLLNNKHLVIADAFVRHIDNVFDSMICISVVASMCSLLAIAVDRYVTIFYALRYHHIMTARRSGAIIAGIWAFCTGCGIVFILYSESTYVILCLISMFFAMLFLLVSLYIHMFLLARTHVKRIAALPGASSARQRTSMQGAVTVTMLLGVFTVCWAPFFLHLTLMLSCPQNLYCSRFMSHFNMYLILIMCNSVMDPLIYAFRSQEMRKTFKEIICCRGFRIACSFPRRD

The first assay has as its target T1, human MC5R (Homo sapiens, UniProt P33032).
T1 construct: purchased Perkin Elmer RBXMC5M400UA
Description: Human MC5R radioligand binding assay ([125I] NDP-MSH displacement, hMC5R membranes).
Conditions: not given
How it is done: After incubation for 10 mins the phosphate buffer containing the iodine was added to NDP-MSH (10 ul at 1 mg/mL) in a separate eppendorf tube. This was incubated for a further 10 mins.
Resuspended membranes were kept on ice until they were added to the wells of the plate.
Assays were performed in 96 well polypropylene plates. […] This was incubated for 1 hr at 37 °C. Non-specific binding was determined with […] NDP-MSH. Plates were filtered using a Tomtec cell harvester with GF/A filters (Wallac) (presoaked in 0.6% polyethylenimine) and washed three times with 1.0 mL ice-cold wash buffer (the above incubation buffer without 1,10-phenanthroline and Complete™ protease inhibitor tablet). The filters were dried in a 37 °C oven, placed in a sample bag and 5 mL Betaplatescint (Wallac) was added. Prepared filters were counted in cassettes in a Microbeta Trilux (Wallac) for 1 min. […] Data analysis was performed using GraphPad Prism 4, employing competition binding with a single site model and a fixed Hill coefficient. The following equation was used: Y = Bottom + (Top-Bottom)/1/10^(X-logEC50), where X = log(concentration) and Y = binding to fit the data.
`CC[C@@H](CN1CC[C@@H](CNC(=O)c2ccc(Cl)c(Cl)c2)N[C@@H](CCN)C1=O)C(C)C` (racemic) [Compound 489, N-(((3S,5S)-3-(2-aminoethyl)-1-((R)-2-ethyl-3-methylbutyl)-2-oxo-1,4-diazepan-5-yl)methyl)-3,4-dichlorobenzamide] gave an IC50 of less than 10000 nM.

The same assay, now with this note: hMC5R assay as in Example 102; compounds tested as trifluoroacetate or hydrochloride salts, or as free base.
`N=C(N)NCCC[C@@H]1N[C@H](CNC(=O)/C=C/c2ccc(Br)cc2)CCN(CC(c2ccccc2)c2ccccc2)C1=O` [Compound 210, (E)-3-(4-bromophenyl)-N-(((3S,5S)-1-(2,2-diphenylethyl)-3-(3-guanidinopropyl)-2-oxo-1,4-diazepan-5-yl)methyl)acrylamide]: the IC50 was less than 10 nM. On the same count and under the same terms, as for `N=C(N)NCCC[C@@H]1N[C@H](CNC(=O)[C@@H]2COc3ccccc3O2)CCN(CC(c2ccccc2)c2ccccc2)C1=O` [Compound 165, (S)-N-(((3S,5S)-1-(2,2-diphenylethyl)-3-(3-guanidinopropyl)-2-oxo-1,4-diazepan-5-yl)methyl)-2,3-dihydrobenzo[b][1,4]dioxine-2-carboxamide], the figure is less than 1000 nM; as for `O=C(NC[C@@H]1CCN(Cc2cc(Cl)cc(Cl)c2)C(=O)[C@H](CCN2CCCCC2)N1)c1ccc(Cl)c(Cl)c1` [Compound 343, 3,4-dichloro-N-(((3S,5S)-1-(3,5-dichlorobenzyl)-2-oxo-3-(2-(piperidin-1-yl)ethyl)-1,4-diazepan-5-yl)methyl)benzamide], less than 100 nM.

With `N=C(N)NCCC[C@@H]1N[C@H](CNC(=O)c2ccccc2)CCN(CC(c2ccccc2)c2ccccc2)C1=O` [Compound 115, N-(((3S,5S)-1-(2,2-diphenylethyl)-3-(3-guanidinopropyl)-2-oxo-1,4-diazepan-5-yl)methyl)benzamide], the IC50 was less than 1000 nM. For `CCC(CN1CCC(CNC(=O)c2ccc3cc(Cl)ccc3c2)N[C@@H](C2CCN(CCC(C)C)CC2)C1=O)c1ccccc1` (stereo partly drawn) [Compound 473], the IC50 was less than 100 nM. Same read-out and setting: as for `CCC(CN1CCC(CNC(=O)c2ccc3cc(Cl)ccc3c2)N[C@@H](C2CCNCC2)C1=O)c1ccccc1` (stereo partly drawn) [Compound 472, (S)-6-chloro-N-((2-oxo-1-(2-phenylbutyl)-3-(piperidin-4-yl)-1,4-diazepan-5-yl)methyl)-2-naphthamide], the figure is less than 100 nM.

Turning to `COc1cc(C(=O)NC[C@@H]2CCN(CC(c3ccccc3)c3ccccc3)C(=O)[C@H](CCCNC(=N)N)N2)c(OC)c2ccccc12` [Compound 215, N-(((3S,5S)-1-(2,2-diphenylethyl)-3-(3-guanidinopropyl)-2-oxo-1,4-diazepan-5-yl)methyl)-1,4-dimethoxy-2-naphthamide], the IC50 is less than 1000 nM. Still for that read-out and setting: as for `O=C(/C=C/c1ccc(Cl)cc1)NC[C@@H]1CCN(CC(c2ccccc2)c2ccccc2)C(=O)[C@H](CCC2CCCCC2)N1` [Compound 322, (E)-3-(4-chlorophenyl)-N-(((3S,5S)-3-(2-cyclohexylethyl)-1-(2,2-diphenylethyl)-2-oxo-1,4-diazepan-5-yl)methyl)acrylamide], the figure is less than 1000 nM. As to `N=C(N)NCCC[C@@H]1N[C@H](CNC(=O)c2ccc3[nH]nnc3c2)CCN(CC(c2ccccc2)c2ccccc2)C1=O` [Compound 150, N-(((3S,5S)-1-(2,2-diphenylethyl)-3-(3-guanidinopropyl)-2-oxo-1,4-diazepan-5-yl)methyl)-1H-benzo[d][1,2,3]triazole-5-carboxamide], the concentration for half-maximal inhibition (IC50) is less than 10000 nM. Still for that read-out and setting: as for `N=C(N)NCCC[C@@H]1N[C@H](CNC(=O)C2Cc3ccccc3C2)CCN(CC(c2ccccc2)c2ccccc2)C1=O` [Compound 133, N-(((3S,5S)-1-(2,2-diphenylethyl)-3-(3-guanidinopropyl)-2-oxo-1,4-diazepan-5-yl)methyl)-2,3-dihydro-1H-indene-2-carboxamide], the figure is less than 10000 nM; as for `N=C(N)NCCC[C@@H]1N[C@H](CNC(=O)c2ccc3sccc3c2)CCN(CC(c2ccccc2)c2ccccc2)C1=O` [Compound 185, N-(((3S,5S)-1-(2,2-diphenylethyl)-3-(3-guanidinopropyl)-2-oxo-1,4-diazepan-5-yl)methyl)benzo[b]thiophene-5-carboxamide], less than 100 nM; as for `N=C(N)NCCC[C@@H]1N[C@H](CNC(=O)c2cc(Cl)ccc2Cl)CCN(CC(c2ccccc2)c2ccccc2)C1=O` [Compound 137, 2,5-dichloro-N-(((3S,5S)-1-(2,2-diphenylethyl)-3-(3-guanidinopropyl)-2-oxo-1,4-diazepan-5-yl)methyl)benzamide], less than 1000 nM. Consider `N=C(N)NCCC[C@@H]1N[C@H](CNC(=O)/C=C/c2cccc(C(F)(F)F)c2)CCN(CC(c2ccccc2)c2ccccc2)C1=O` [Compound 192, (E)-N-(((3S,5S)-1-(2,2-diphenylethyl)-3-(3-guanidinopropyl)-2-oxo-1,4-diazepan-5-yl)methyl)-3-(3-(trifluoromethyl)phenyl)acrylamide], for which the IC50 was less than 1000 nM. For `NCCCC[C@@H]1N[C@H](CNC(=O)c2ccc3ccccc3c2)CCN(Cc2cccc3ccccc23)C1=O` [Compound 117, N-(((3S,5S)-3-(4-aminobutyl)-1-(naphthalen-1-ylmethyl)-2-oxo-1,4-diazepan-5-yl)methyl)-2-naphthamide], the IC50 is less than 1000 nM. Same read-out and setting: as for `NC[C@@H]1N[C@H](CNC(=O)c2ccc(Cl)c(Cl)c2)CCN(Cc2cc(Cl)cc(Cl)c2)C1=O` [Compound 364, N-(((3S,5S)-3-(aminomethyl)-1-(3,5-dichlorobenzyl)-2-oxo-1,4-diazepan-5-yl)methyl)-3,4-dichlorobenzamide], the figure is less than 1000 nM. In the case of `N=C(N)NCCC[C@@H]1N[C@H](CNC(=O)c2ccc(-c3ccccc3)o2)CCN(CC(c2ccccc2)c2ccccc2)C1=O` [Compound 179, N-(((3S,5S)-1-(2,2-diphenylethyl)-3-(3-guanidinopropyl)-2-oxo-1,4-diazepan-5-yl)methyl)-5-phenylfuran-2-carboxamide], the IC50 was less than 1000 nM. The same measure, in the same setting: with `N=C(N)NCCC[C@@H]1N[C@H](CNC(=O)[C@H]2COc3ccccc3O2)CCN(CC(c2ccccc2)c2ccccc2)C1=O` [Compound 168, (R)-N-(((3S,5S)-1-(2,2-diphenylethyl)-3-(3-guanidinopropyl)-2-oxo-1,4-diazepan-5-yl)methyl)-2,3-dihydrobenzo[b][1,4]dioxine-2-carboxamide] the figure was less than 1000 nM; with `N=C(N)NCCC[C@@H]1N[C@H](CNC(=O)c2ccc3ccccc3c2)CCN(CCc2ccccc2)C1=O` [Compound 182, N-(((3S,5S)-3-(3-guanidinopropyl)-2-oxo-1-phenethyl-1,4-diazepan-5-yl)methyl)-2-naphthamide], less than 1000 nM; with `NCCCC[C@@H]1N[C@H](CNC(=O)Cc2ccc3ccccc3c2)CCN(Cc2cccc3ccccc23)C1=O` [Compound 118, N-(((3S,5S)-3-(4-aminobutyl)-1-(naphthalen-1-ylmethyl)-2-oxo-1,4-diazepan-5-yl)methyl)-2-(naphthalen-2-yl)acetamide], less than 10000 nM. On the same count and under the same terms, as for `O=C(NC[C@@H]1CCN(Cc2cc(Cl)cc(Cl)c2)C(=O)[C@H](CN2CCCC2)N1)c1ccc(Cl)c(Cl)c1` [Compound 371, 3,4-dichloro-N-(((3S,5S)-1-(3,5-dichlorobenzyl)-2-oxo-3-(pyrrolidin-1-ylmethyl)-1,4-diazepan-5-yl)methyl)benzamide], the figure is less than 1000 nM; as for `Cc1cccc(/C=C/C(=O)NC[C@@H]2CCN(CC(c3ccccc3)c3ccccc3)C(=O)[C@H](CCCNC(=N)N)N2)c1` [Compound 191, (E)-N-(((3S,5S)-1-(2,2-diphenylethyl)-3-(3-guanidinopropyl)-2-oxo-1,4-diazepan-5-yl)methyl)-3-m-tolylacrylamide], less than 100 nM; as for `Cc1ccc(/C=C/C(=O)NC[C@@H]2CCN(CC(c3ccccc3)c3ccccc3)C(=O)[C@H](CCCN)N2)cc1` [Compound 219, (E)-N-(((3S,5S)-3-(3-aminopropyl)-1-(2,2-diphenylethyl)-2-oxo-1,4-diazepan-5-yl)methyl)-3-p-tolylacrylamide], less than 100 nM.

For `N=C(N)NCCC[C@@H]1N[C@H](CNC(=O)c2cc(Cl)cc(Cl)c2)CCN(CC(c2ccccc2)c2ccccc2)C1=O` [Compound 154, 3,5-dichloro-N-(((3S,5S)-1-(2,2-diphenylethyl)-3-(3-guanidinopropyl)-2-oxo-1,4-diazepan-5-yl)methyl)benzamide], the IC50 was less than 1000 nM. For the compound `N=C(N)NCCC[C@@H]1N[C@H](CNC(=O)C2CCCC2)CCN(CC(c2ccccc2)c2ccccc2)C1=O` [Compound 151, N-(((3S,5S)-1-(2,2-diphenylethyl)-3-(3-guanidinopropyl)-2-oxo-1,4-diazepan-5-yl)methyl)cyclopentanecarboxamide], the IC50 is less than 10000 nM. On to `NCCC[C@@H]1N[C@H](CNC(=O)c2cc(-c3ccccc3)n[nH]2)CCN(CC(c2ccccc2)c2ccccc2)C1=O` [Compound 256, N-(((3S,5S)-3-(3-aminopropyl)-1-(2,2-diphenylethyl)-2-oxo-1,4-diazepan-5-yl)methyl)-3-phenyl-1H-pyrazole-5-carboxamide], for which the IC50 is less than 1000 nM.

The same assay, now with this note: hMC5R binding assay as in Example 102; compounds tested as trifluoroacetate or hydrochloride salts, or as free base.
With `CC[C@@H](CN1CC[C@H](CNC(=O)c2ccc3cc(Cl)ccc3c2)N[C@H](CCN2CCCCC2)C1=O)c1ccccc1` [Compound 580, 6-chloro-N-(((3R,5R)-2-oxo-1-((R)-2-phenylbutyl)-3-(2-(piperidin-1-yl)ethyl)-1,4-diazepan-5-yl)methyl)-2-naphthamide], the IC50 is less than 1000 nM.
